Among the test systems are IGROV1 ovarian; SNB-19 CNS; OVCAR-3 ovarian; NCI/ADR-RES ovarian; A498 renal; RPMI-8226 leukemia; SR leukemia; DLD-1 colon; DMS 114 small cell lung; KM20L2 colon; M19-MEL melanoma.
Common to all, as to assay: NCI tumour cell line growth inhibition, 48 h

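How tested: cells in 96-well plates exposed to compound for 48 hours at five concentrations. At the TGI there is no net growth.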

Take `CCCCN1C(=O)CC2[C@@H]3CCc4cc(OC(C)=O)ccc4C3CC[C@]2(C)C1=O` (stereo partly specified): the TGI with IGROV1 ovarian, in the assay on SNB-19 CNS, in the assay on OVCAR-3 ovarian, in the assay with NCI/ADR-RES ovarian, in the assay with A498 renal and with RPMI-8226 leukemia was above 10 µM each time. In addition, the TGI with SR leukemia is above 10 µM.
For `CN1C(=O)N(c2ccccc2)C2(CCN(CC3COc4ccccc4O3)CC2)C1=O` (stereo unspecified), the TGI in the assay with IGROV1 ovarian is above 100 µM; in the assay on SNB-19 CNS it was 56.6 µM; in the assay on OVCAR-3 ovarian, 89.2 µM; in the assay with NCI/ADR-RES ovarian it was above 100 µM; in the assay on A498 renal, above 100 µM; in the assay with RPMI-8226 leukemia, above 100 µM. The TGI in the assay with SR leukemia was above 100 µM.
In the case of `CCCCCCCCCCCCCCCCCCNc1ccn(C2OC(COP(=O)(O)OCC3OC(n4ccc(NC(=O)CCCCCCCCCCCCCCCCC)nc4=O)C(OC(C)=O)C3OC(C)=O)C(OC(C)=O)C2OC(C)=O)c(=O)n1` (stereo unspecified), the TGI with IGROV1 ovarian, with SNB-19 CNS, in the assay on OVCAR-3 ovarian, in the assay on NCI/ADR-RES ovarian, with A498 renal and in the assay with RPMI-8226 leukemia was above 100 µM in each case. Besides, in the assay with SR leukemia, the TGI is above 100 µM.
`O=C(CCCCCCCCC(=O)NN1C(=O)/C(=C\c2ccc(O)c(O)c2)SC1c1ccc(Cl)cc1)NN1C(=O)/C(=C\c2ccc(O)c(O)c2)SC1c1ccc(Cl)cc1` (stereo unspecified): the TGI in the assay with IGROV1 ovarian was above 29.5 µM; in the assay on SNB-19 CNS, above 53.1 µM; in the assay on OVCAR-3 ovarian, above 100 µM; in the assay with NCI/ADR-RES ovarian, above 100 µM; with A498 renal, 69 µM; with RPMI-8226 leukemia, above 31.6 µM. This molecule also gave a TGI in the assay on SR leukemia of 28.3 µM.
In the case of `C=C1CC(COc2cc(=O)oc3ccccc23)(c2ccccc2)OC1=O` (stereo unspecified), the TGI with IGROV1 ovarian was 3.07 µM; in the assay on SNB-19 CNS it was 37.3 µM; in the assay with OVCAR-3 ovarian it was 1.87 µM; in the assay on NCI/ADR-RES ovarian, 25.1 µM; in the assay on A498 renal, 7.47 µM; in the assay with RPMI-8226 leukemia it was 4.01 µM. This molecule also showed a TGI in the assay on SR leukemia above 28 µM.
Regarding `CN(C)/N=N/c1nc2c(c(=O)n(C)c(=O)n2C)n1C`, the TGI in the assay on IGROV1 ovarian, with SNB-19 CNS, with OVCAR-3 ovarian, in the assay on NCI/ADR-RES ovarian, with A498 renal and in the assay with RPMI-8226 leukemia was above 100 µM throughout. This molecule showed a TGI in the assay on SR leukemia above 100 µM.
In the case of `Cc1nc(-c2ccc([N+](=O)[O-])cc2)cn2c1nc1ccccc12`, the TGI in the assay with IGROV1 ovarian, in the assay with SNB-19 CNS, with OVCAR-3 ovarian, with NCI/ADR-RES ovarian, in the assay on A498 renal and in the assay with RPMI-8226 leukemia was above 100 µM each time. In the assay on SR leukemia, the TGI was above 100 µM.
Consider `CN1C(=O)C2C(=O)N(Cc3ccccc3)CC(=O)N2c2cccnc21` (stereo unspecified), for which the TGI with IGROV1 ovarian, with SNB-19 CNS, with OVCAR-3 ovarian, in the assay with NCI/ADR-RES ovarian, in the assay on A498 renal and with RPMI-8226 leukemia was above 100 µM each time. This molecule returned a TGI in the assay on SR leukemia above 100 µM.
For `Nc1nc2cc3nc(N)c(N)nc3cc2nc1N`, the TGI in the assay with IGROV1 ovarian, in the assay on SNB-19 CNS, with OVCAR-3 ovarian, in the assay with NCI/ADR-RES ovarian, in the assay on A498 renal and in the assay with RPMI-8226 leukemia was above 100 µM each time. In the assay with SR leukemia, this molecule yielded a TGI above 100 µM.
`CN(C)CCCOC(=O)C(c1ccccc1)C1(O)CCSCC1` (stereo unspecified): the TGI was above 100 µM with IGROV1 ovarian; 78.6 µM in the assay on SNB-19 CNS; above 100 µM in the assay with OVCAR-3 ovarian; above 100 µM in the assay with NCI/ADR-RES ovarian; above 100 µM in the assay on A498 renal; above 100 µM in the assay on RPMI-8226 leukemia. The TGI in the assay on SR leukemia is above 100 µM.
For the molecule `CC(C)(N=NC(C)(C)C(=O)NCCO)C(=O)NCCO`, the TGI in the assay with IGROV1 ovarian, in the assay on SNB-19 CNS, in the assay with OVCAR-3 ovarian, in the assay on NCI/ADR-RES ovarian, with A498 renal and in the assay on RPMI-8226 leukemia was above 100 µM in each case. The TGI in the assay on SR leukemia was above 100 µM.
`NC(N)=NS(=O)(=O)c1ccc(NCc2c3ccccc3[n+]([O-])c3ccccc23)cc1`: the TGI is above 100 µM in the assay with DLD-1 colon; 56.6 µM in the assay on DMS 114 small cell lung; above 100 µM in the assay with IGROV1 ovarian; above 100 µM in the assay on SNB-19 CNS; above 100 µM with OVCAR-3 ovarian; above 100 µM with A498 renal. Further, the results for the TGI in the assay on KM20L2 colon, in the assay with M19-MEL melanoma and in the assay on RPMI-8226 leukemia were above 100 µM, above 100 µM and 74.3 µM, respectively.
In the case of `O=C(O)c1cc2c(cc1CC(Cc1ccc3c(c1)CCC3)C(=O)O)CCC2` (stereo unspecified), the TGI in the assay on IGROV1 ovarian, with SNB-19 CNS, in the assay with OVCAR-3 ovarian, in the assay on NCI/ADR-RES ovarian, in the assay with A498 renal and in the assay with RPMI-8226 leukemia was above 100 µM each time. This molecule also returned a TGI with SR leukemia above 100 µM.
Consider `Brc1ccc(CCNCCN2CCCCC2)cc1`, for which the TGI was 31 µM in the assay on IGROV1 ovarian; 34 µM in the assay on SNB-19 CNS; 29.7 µM in the assay with OVCAR-3 ovarian; 59.5 µM with NCI/ADR-RES ovarian; 32 µM in the assay with A498 renal; above 100 µM with RPMI-8226 leukemia. The molecule also showed a TGI in the assay on SR leukemia above 100 µM.
Take `O=c1nc(N2CCN(c3ccccc3)CC2)ccn1C1OC(CO)C(O)C1O` (stereo unspecified): the TGI in the assay with IGROV1 ovarian, in the assay with SNB-19 CNS, in the assay on OVCAR-3 ovarian, in the assay on NCI/ADR-RES ovarian, in the assay with A498 renal and in the assay on RPMI-8226 leukemia was above 100 µM each time. For the same molecule, in the assay with SR leukemia, the TGI is above 100 µM.
Take `Cc1c(F)c(N)c2c(=O)cc(-c3ccc(NC(=O)CN(C)C)c(F)c3)oc2c1F`: the TGI was above 100 µM in the assay on IGROV1 ovarian; above 100 µM with SNB-19 CNS; above 60.9 µM with OVCAR-3 ovarian; above 100 µM with NCI/ADR-RES ovarian; 5.77 µM in the assay on A498 renal; above 83 µM with RPMI-8226 leukemia. The molecule further showed a TGI in the assay with SR leukemia of 61 µM.
As to `CN(CCC#N)c1ccc(/C=C2\SC(=S)NC2=O)cc1`, the TGI was above 100 µM with IGROV1 ovarian; above 100 µM in the assay on SNB-19 CNS; 67.9 µM in the assay with OVCAR-3 ovarian; above 100 µM with NCI/ADR-RES ovarian; above 100 µM in the assay on A498 renal; above 100 µM in the assay on RPMI-8226 leukemia. Further, the TGI in the assay on SR leukemia was above 100 µM.
